The results in this text go back to patent US20100216825A1, “FUNGICIDAL COMPOSITIONS” (SYNGENTA CROP PROTECTION, INC., priority 2006, published 2010).

Common to all, as to assay type: cell-based
For one assay, the system named is Botrytis cinerea. Nature of the assay: Action against Botrytis cinerea, growth inhibition in nutrient broth (microtiter plate, photometric). Particulars: 24° C., 48-72 hrs.
Another assay has as its system Pyricularia oryzae. Particulars: 24° C., 72 hrs.
For the next assay, the system named is Alternaria solani. Nature of the assay: Action against Alternaria solani (early blight), growth inhibition in nutrient broth (microtiter plate, photometric). Particulars: 24° C., 48 hrs.
In a further assay the test system is Pyrenophora teres. Nature of the assay: Action against Pyrenophora teres (net blotch), growth inhibition in nutrient broth (microtiter plate, photometric). The settings on record: 24° C., 48 hrs.
In a further assay the test system is Pythium ultimum. Description: Action against Pythium ultimum (damping off), growth inhibition in nutrient broth (microtiter plate, photometric). Particulars: each active ingredient at 0.67 ppm [mg/L] final medium; 24° C., 48 hrs.
The mark [1] stands for this setting: each active ingredient at 0.02 ppm [mg/L] final medium.

Structures are written as SMILES. “And” between values parts separate entries of the source, which are not always exact repeats. Identical values can stand only once. Like-named read-outs stand apart in the source and are kept apart here.

Consider `CC(C)C1C2CCC1c1c(NC(=O)c3cn(C)nc3C(F)F)cccc12` (racemic) [Cpd I, 3-difluoromethyl-1-methyl-1H-pyrazole-4-carboxylic acid (9-isopropyl-1,2,3,4-tetrahydro-1,4-methano-naphthalen-5-yl)-amide], for which the “Observed control in % (% Cobs) observed” value with Botrytis cinerea (setting [1]) is on record as 17%; in the assay on Botrytis cinerea (each active ingredient at 0.07 ppm [mg/L] final medium), 61%; with Botrytis cinerea (each active ingredient at 0.22 ppm [mg/L] final medium), 74%; with Botrytis cinerea (each active ingredient at 0.67 ppm [mg/L] final medium), 79%; with Pyricularia oryzae (each active ingredient at 0.01 ppm [mg/L] final medium), 11%; in the assay on Pyricularia oryzae (setting [1]), 35%. Besides, the “Observed control in % (% Cobs) observed” value in the assay with Alternaria solani (each active ingredient at 0.004 ppm [mg/L] final medium) was 1% and 2%; with Alternaria solani (each active ingredient at 0.008 ppm [mg/L] final medium) it was 5% and 2%; with Alternaria solani (each active ingredient at 0.016 ppm [mg/L] final medium), 9% and 12% and 3%; in the assay with Alternaria solani (setting [1]), 46%; in the assay on Pyrenophora teres (each active ingredient at 0.5 ppm [mg/L] final medium), 70%; in the assay with Pyrenophora teres (each active ingredient at 1 ppm [mg/L] final medium), 79%. Besides, the “Observed control in % (% Cobs) observed” value with Pythium ultimum was determined as 0%.
